According to ChEMBL document CHEMBL5149971, “Pyridones in drug discovery: Recent advances” (Bioorg Med Chem Lett, 2021):

What was measured:
[1] = system: rhinovirus B14; test: Antiviral activity against Human rhinovirus 14 infected in H1-HeLa cells assessed as reduction in viral infection measured after 2 days by XTT dye reduction method; type: functional, organism-based; conditions: Rhinovirus B, 48 h
[2] = system: rhinovirus B14; test: Antiviral activity against Human rhinovirus 14 infected in H1-HeLa cells assessed as reduction in viral infection measured after 5 days by XTT dye reduction method; type: functional, organism-based; conditions: Rhinovirus B, 120 h
[3] = Inhibition of MEK (unknown origin) in the presence of [gamma33P]ATP by scintillation counting method; set-up: species or system Homo sapiens
[4] = Oral bioavailability in hamster; type: ADME, organism-based, Mesocricetus auratus; conditions: in vivo
[5] = molecular target: T1, Neutrophil elastase (Homo sapiens, UniProt P08246); test: Inhibition of human neutrophil elastase using methoxysuccinyl-Ala-Ala-Pro-Val-pnitroanilide as substrate by spectrophotometric analysis
T1 sequence (P08246 whole entry): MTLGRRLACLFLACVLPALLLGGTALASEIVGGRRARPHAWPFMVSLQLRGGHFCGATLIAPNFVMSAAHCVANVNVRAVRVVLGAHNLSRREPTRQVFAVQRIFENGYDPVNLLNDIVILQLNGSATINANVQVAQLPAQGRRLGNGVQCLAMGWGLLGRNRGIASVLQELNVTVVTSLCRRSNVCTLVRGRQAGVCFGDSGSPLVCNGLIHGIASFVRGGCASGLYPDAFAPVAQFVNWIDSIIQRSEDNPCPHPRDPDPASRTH

SMILES: CCOC(=O)/C=C/[C@H](CCC(N)=O)NC(=O)[C@H](Cc1ccccc1)NC(=O)[C@H](CC(C)C)NC(=O)OCc1ccccc1
- EC50 [1]: 0.54 µM

SMILES: CCOC(=O)/C=C/[C@H](C[C@@H]1CCNC1=O)NC(=O)[C@@H](CC(=O)[C@@H](NC(=O)c1cc(C)on1)C(C)C)Cc1ccc(F)cc1
- EC50 [2]: 0.013 µM

SMILES: CC(C)(C)c1nc2c3ccc(F)cc3c3c(=O)[nH]ccc3c2[nH]1
- IC50 [3]: 0.16 µM

SMILES: CC(C)C(NC(=O)Cn1c(-c2ccc(F)cc2)ncc(N)c1=O)C(=O)C(F)(F)F (stereo not given)
- bioavailability [4]: 77%

SMILES: CC(C)C(NC(=O)[C@@H]1CCCN1C(=O)[C@@H](NC(=O)c1ccc(C(=O)NS(=O)(=O)c2ccc(Cl)cc2)cc1)C(C)C)C(N)=O (stereo not given in full)
- Ki [5]: 0.0005 µM
